What all share (assay type): in vivo
Test [1] has as its system CD31-positive vessel in the FaDu subcutaneous model. The test can be described thus: Effect on CD31-positive vessel in the FaDu subcutaneous model in mice (Test Example 18). As to conditions: five days after. How it is done:
A human squamous cell carcinoma of the head and neck (SCCHN) cell line FaDu, which had been cultured in an RPMI-1640 medium containing 10% FBS, and penicillin-streptomycin (culture medium), was adjusted to a concentration of 5×10^7 cells/mL with culture medium to prepare a cell suspension. The cell suspension was inoculated in a volume of 100 μL into a subcutaneous part of a right flank of nude mice, 6 weeks of ages (CAnN.Cg-Foxnlnu/CrlCrlj, female, Charles River Laboratories Japan, Inc.). Ten days after cell inoculation, the mice were grouped such that averages of the tumor volumes were substantially equal among the groups. The experiment was conducted on groups each consisting of 6 mice. Each test compound was dissolved in DMSO and a solution was stored in the freezer before use. Immediately before the administration, the stock solution was diluted with saline. The test compound in saline was intravenously administered at 20 μg/kg, […]. Five days after the single administration, tumor samples were collected and fixed with IHC Zinc Fixative (BD Pharmingen) at 4° C. for 24 hours. Paraffin-embedded tissues were sectioned (3 μm), mounted on positively charged slides, and air-dried. Immunohistochemical staining of CD31 was conducted using Ventana autostainer model Discover XT (Roche Diagnostics) according to the manufacture's protocol. Sections were deparaffinized, conditioned and the antigens were retrieved with CC1 (Ventana Medical Systems). […] The number of blood vessels in the whole tumor was quantified by counting the CD31-positive objects using inform 2 software (PerkinElmer Inc.) Area of the tumor region was measured by assessing the hematoxylin-staining area using inform 2 software (PerkinElmer Inc.) The number of blood vessels was normalized by the area of the tumor region. […] The ratios of blood vessel number in the test compound-dosing groups compared to non-treat group were calculated with the below formula: Tumor vessel ratio=blood vessel number of the test compound-dosing group/blood vessel number of the non-treat group)

The subject of test [2] is CT26 subcutaneous syngeneic model. Briefly: Antitumor activity in CT26 subcutaneous syngeneic model in combination with anti-mPD-1 antibody in mice. How it is done:
A murine undifferentiated colon carcinoma cell line CT26, which had been cultured in an RPMI-1640 medium containing 10% FBS, and penicillin and streptomycin, was adjusted to a concentration of 2×10^7 cells/mL with Hank's Balanced Salt Solution to prepare a cell suspension. On day 1, the cell suspension was inoculated in a volume of 100 μL into a subcutaneous part of a right flank of BALB/c mice, 6 weeks of ages (BALB/cAnNCrlCrlj, female, Charles River Laboratories Japan, Inc.). Two days after the cell inoculation, the mice were randomly divided into four groups and each group consists of 8 mice. The shortest diameter and the longest diameter of a tumor in each mouse were measured by using an electronic digital caliper (Digimatic™ caliper, Mitutoyo Corporation), so as to calculate the volume of the tumor in accordance with the following calculation formula: Tumor volume (mm^3)=Longest diameter (mm)×Shortest diameter (mm)×Shortest diameter (mm)/2 T/C=(mean tumor volume of treated group)/(mean tumor volume of control group) Inhibition of tumor growth (%)=(1−T/C)×100
The test compound was intravenously administered at 0.09 mg/kg on days 3 and 11. Anti-mPD-1 antibody (BE0146, Bio X Cell) was intravenously administered at 10 mg/kg on days 3, 7, 11, and 15.

The subject of test [3] is CTG-2041 (human angiosarcoma) tumor fragments. Briefly: Antitumor effects in CTG-2041 soft tissue sarcoma xenograft model in mice as monotherapy. As to conditions: 100 μg/kg intravenously on Day 1 and Day 8. From the text: Tumor fragments of human angiosarcoma CTG-2041 were implanted s.c. in the left flank of female mice. Tumor growth was monitored twice a week using digital caliper, so as to calculate the volume of the tumor in accordance with the following calculation formula: Tumor volume (mm^3)=Longest diameter (mm)×Shortest diameter (mm)×Shortest diameter (mm)/2 Relative tumor volume (RTV)=Tumor volume (day X)/Tumor volume (the first day)
When the volume of tumors reached approximately 200 mm^3, animals are matched by tumor volume into treatment or control groups and dosing initiated on Day 1. Each group was consisted with five mice. Compound (1) was dissolved in DMSO and a solution was stored in the freezer before use. Compound (1) (100 μg/kg) diluted in saline and intravenously injected on Day 1 and Day 8.

For the molecule `C=C1C[C@@H]2CC[C@@]34C[C@H]5O[C@H]6[C@@H](O3)[C@H]3O[C@H](CC[C@@H]3O[C@H]6C5O4)CC(=O)O[C@@H]3[C@@H](C)[C@@H]4O[C@@H]5C[C@]6(C[C@@H]7O[C@]8(C[C@H](C)[C@@H]9O[C@H](CN)[C@H](O)C[C@@H]9O8)C[C@H](C)[C@@H]7O6)O[C@@H]5C[C@@H]4O[C@H]3C[C@H]3O[C@@H](CC[C@@H]1O2)C[C@@H](C)C3=C` [Compound (1)], the “tumor blood vessel number” value in test [1] (single administration 20 μg/kg), in test [1] (single administration 60 μg/kg) and in test [1] (single administration 180 μg/kg) was “increased the tumor blood vessel number” each time. The “Inhibition of tumor growth on day 15 (%)” value in test [2] (0.09 mg/kg intravenously + anti-mPD-1 antibody 10 mg/kg) turned out to be 62%; in test [2] (0.09 mg/kg intravenously on days 3 and 11, without antibody) it was 30%. Also, the antitumor activity entry in test [3] is reported as “tumor regression”.
